According to US11213542B2, “Method and agent for lowering total cholesterol levels and for improving blood lipid spectrum composition” (BIOGIX, INC., priority 2018, dated 2022):
Read-outs that look alike come from different tables or passages of the source. Marks after values point to notes of the source that are not given here.

Tested on: patients with abnormal levels of lipid spectrum
[1] = Visit 1 (baseline), 4000 mg vitamin PP daily for 5 days
[2] = Visit 2 (5 days of supplementation), 4000 mg vitamin PP daily
[3] = Visit 3 (10 days after last dose), 15 days, 4000 mg vitamin PP daily for 5 days
[4] = Visit 4 (30 days after last dose), 35 days, 4000 mg vitamin PP daily for 5 days

Structure (SMILES): O=C(O)c1cccnc1 [PP, vitamin PP]
- patients dropped out due to side effects (3rd day of the trial): 1 patients
- effect on lipid spectrum (in words) (4000 mg vitamin PP daily, 5 days): quickly lowers TC and LDL, without significantly changing the rest of the lipid spectrum parameters
- patients dropped out due to side effects (4th day of the trial): 3 patients
- patients dropped out due to adverse effects (PP group, 4000 mg vitamin PP daily, 5 days): 12%
- HDL (high density lipoproteins) [1]: 0.98 mmol/L
- LDL (low density lipoproteins) [1]: 3.13 mmol/L
- La (lipoprotein a) [1]: 36.75 mg/dL
- TC (total cholesterol) [1]: 6.77 mmol/L
- TG (triglycerides) [1]: 2.35* mmol/L
- VLDL (very low density lipoproteins) [1]: 1.14 mmol/L
- HDL (high density lipoproteins) [2]: 0.99 mmol/L
- LDL (low density lipoproteins) [2]: 2.58 mmol/L
- La (lipoprotein a) [2]: 38.39 mg/dL
- TC (total cholesterol) [2]: 5.99 mmol/L
- TG (triglycerides) [2]: 2.40 mmol/L
- VLDL (very low density lipoproteins) [2]: 1.11 mmol/L
- HDL (high density lipoproteins) [3]: 0.95 mmol/L
- LDL (low density lipoproteins) [3]: 2.97 mmol/L
- La (lipoprotein a) [3]: 37.40 mg/dL
- TC (total cholesterol) [3]: 6.12 mmol/L
- TG (triglycerides) [3]: 2.33 mmol/L
- VLDL (very low density lipoproteins) [3]: 1.15 mmol/L
- HDL (high density lipoproteins) [4]: 0.99 mmol/L
- LDL (low density lipoproteins) [4]: 3.18 mmol/L
- La (lipoprotein a) [4]: 37.29 mg/dL
- TC (total cholesterol) [4]: 6.81 mmol/L
- TG (triglycerides) [4]: 2.37 mmol/L
- VLDL (very low density lipoproteins) [4]: 1.16 mmol/L
- duration of efficacy (after 5-day course of 4000 mg vitamin PP daily): ≤ 10 days
- patients dropped out due to side effects (second day of the trial): 2 patients
